# Results taken from paper PMC9150124, “Design of a Potent, Selective, and Brain-Penetrant Inhibitor of Wnt-Deactivating Enzyme Notum by Optimization of a Crystallographic Fragment Hit” (Journal of Medicinal Chemistry, 2022).
# Experiments:
# Experiment in all cases: SelectScreen kinase profiling, SSBK ZLyte SP Technology
# Type in all cases: biochemical
# [1] = biological target: kinase named in conditions (Homo sapiens, UniProt Q52WX2); settings: SBK1, 10 μM
# Method: (§1) Kinase selectivity screening was performed by Thermo Fisher Scientific (Paisley, U.K.) in their SelectScreen Biochemical Kinase Profiling Service. Assay information and data are presented in the Supporting Information.
# (§2) Kinase selectivity screening was performed by ThermoFisher Scientific (Paisley, U.K.) in their SelectScreenTM
# (§3) Biochemical Kinase Profiling service .
# [2] = biological target: kinase named in conditions (Homo sapiens, UniProt P31749); settings: AKT1 (PKB alpha), 10 μM
# Method: as §1, §2, §3
# [3] = biological target: kinase named in conditions (Homo sapiens, UniProt P11309); settings: PIM1, 10 μM
# Method: as §1, §2, §3
# [4] = biological target: kinase named in conditions (Homo sapiens, UniProt Q15303); settings: ERBB4 (HER4), 10 μM
# Method: as §1, §2, §3
# [5] = biological target: kinase named in conditions (Homo sapiens, UniProt O15530)
# Method: as §1, §2, §3
# [6] = biological target: kinase named in conditions (Homo sapiens, UniProt P78362); settings: SRPK2, 10 μM
# Method: as §1, §2, §3
# [7] = biological target: kinase named in conditions (Homo sapiens, UniProt Q56UN5); settings: MAP3K19 (YSK4), 10 μM
# Method: as §1, §2, §3
# [8] = biological target: kinase named in conditions (Homo sapiens, UniProt Q9NQU5); settings: PAK6, 10 μM
# Method: as §1, §2, §3
# [9] = biological target: kinase named in conditions (Homo sapiens, UniProt Q96GD4); settings: AURKB (Aurora B), 10 μM
# Method: as §1, §2, §3
# [10] = biological target: kinase named in conditions (Homo sapiens, UniProt P27448); settings: MARK3, 10 μM
# Method: as §1, §2, §3
# [11] = biological target: kinase named in conditions (Homo sapiens, UniProt O15146); settings: MUSK, 10 μM
# Method: as §1, §2, §3
# [12] = biological target: kinase named in conditions (Homo sapiens, UniProt O75582); settings: RPS6KA5 (MSK1), 10 μM
# Method: as §1, §2, §3
# [13] = biological target: kinase named in conditions (Homo sapiens, UniProt P07949); settings: RET, 10 μM
# Method: as §1, §2, §3
# [14] = biological target: kinase named in conditions (Homo sapiens, UniProt P14616); settings: INSRR (IRR), 10 μM
# Method: as §1, §2, §3
# [15] = biological target: kinase named in conditions (Homo sapiens, UniProt Q8N4C8); settings: MINK1, 10 μM
# Method: as §1, §2, §3
# [16] = biological target: kinase named in conditions (Homo sapiens, UniProt P25098); settings: ADRBK1 (GRK2), 10 μM
# Method: as §1, §2, §3
# [17] = biological target: kinase named in conditions (Homo sapiens, UniProt Q07002); settings: CDK18/cyclin Y, 10 μM
# Method: as §1, §2, §3
# [18] = biological target: kinase named in conditions (Homo sapiens, UniProt Q9Y243); settings: AKT3 (PKB gamma), 10 μM
# Method: as §1, §2, §3
# [19] = biological target: kinase named in conditions (Homo sapiens, UniProt Q15349); settings: RPS6KA2 (RSK3), 10 μM
# Method: as §1, §2, §3
# [20] = biological target: kinase named in conditions (Homo sapiens, UniProt P09769); settings: FGR, 10 μM
# Method: as §1, §2, §3
# [21] = biological target: kinase named in conditions (Homo sapiens, UniProt Q9H3Y6); settings: SRMS (Srm), 10 μM
# Method: as §1, §2, §3
# [22] = biological target: kinase named in conditions (Homo sapiens, UniProt P54760); settings: EPHB4, 10 μM
# Method: as §1, §2, §3
# [23] = biological target: kinase named in conditions (Homo sapiens, UniProt O15264); settings: MAPK13 (p38 delta), 10 μM
# Method: as §1, §2, §3
# [24] = biological target: kinase named in conditions (Homo sapiens, UniProt P10721, V559D/V654A); settings: KIT V559D V654A, 10 μM
# Method: as §1, §2, §3
# [25] = biological target: kinase named in conditions (Homo sapiens, UniProt P68400); settings: CSNK2A1 (CK2 alpha 1), 10 μM
# Method: as §1, §2, §3
# [26] = biological target: kinase named in conditions (Homo sapiens, UniProt P22607); settings: FGFR3, 10 μM
# Method: as §1, §2, §3
# [27] = biological target: kinase named in conditions (Homo sapiens, UniProt Q6DT37); settings: CDC42 BPG (MRCKG), 10 μM
# Method: as §1, §2, §3
# [28] = biological target: kinase named in conditions (Homo sapiens, UniProt P49137); settings: MAPKAPK2, 10 μM
# Method: as §1, §2, §3
# [29] = biological target: kinase named in conditions (Homo sapiens, UniProt Q04912); settings: MST1R (RON), 10 μM
# Method: as §1, §2, §3
# [30] = biological target: kinase named in conditions (Homo sapiens, UniProt Q8WTQ7); settings: GRK7, 10 μM
# Method: as §1, §2, §3
# [31] = biological target: kinase named in conditions (Homo sapiens, UniProt P32298); settings: GRK4, 10 μM
# Method: as §1, §2, §3
# [32] = biological target: kinase named in conditions (Homo sapiens, UniProt P00533, C797S); settings: EGFR (ErbB1) C797S, 10 μM
# Method: as §1, §2, §3
# [33] = biological target: kinase named in conditions (Homo sapiens, UniProt P16234, D842V); settings: PDGFRA D842V, 10 μM
# Method: as §1, §2, §3
# [34] = biological target: kinase named in conditions (Homo sapiens, UniProt P35968); settings: KDR (VEGFR2), 10 μM
# Method: as §1, §2, §3
# Sequence of kinase named in conditions (Homo sapiens, UniProt O15530) (O15530 whole entry): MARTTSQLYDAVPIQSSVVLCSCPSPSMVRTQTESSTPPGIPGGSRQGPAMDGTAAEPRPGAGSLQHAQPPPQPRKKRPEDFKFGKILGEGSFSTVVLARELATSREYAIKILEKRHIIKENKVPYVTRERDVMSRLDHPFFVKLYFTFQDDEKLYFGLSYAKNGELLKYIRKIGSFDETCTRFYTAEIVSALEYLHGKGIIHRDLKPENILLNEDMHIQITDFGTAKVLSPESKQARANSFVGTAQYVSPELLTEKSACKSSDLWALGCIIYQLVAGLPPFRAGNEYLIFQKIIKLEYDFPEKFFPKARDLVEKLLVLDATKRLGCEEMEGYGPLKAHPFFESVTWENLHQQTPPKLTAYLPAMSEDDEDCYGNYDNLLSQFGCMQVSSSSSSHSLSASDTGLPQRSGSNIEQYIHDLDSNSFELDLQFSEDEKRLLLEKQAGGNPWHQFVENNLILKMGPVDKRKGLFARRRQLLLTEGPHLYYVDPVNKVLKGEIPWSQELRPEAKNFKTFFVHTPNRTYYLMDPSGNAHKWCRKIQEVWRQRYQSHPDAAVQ
# Sequence of kinase named in conditions (Homo sapiens, UniProt P25098) (P25098 whole entry): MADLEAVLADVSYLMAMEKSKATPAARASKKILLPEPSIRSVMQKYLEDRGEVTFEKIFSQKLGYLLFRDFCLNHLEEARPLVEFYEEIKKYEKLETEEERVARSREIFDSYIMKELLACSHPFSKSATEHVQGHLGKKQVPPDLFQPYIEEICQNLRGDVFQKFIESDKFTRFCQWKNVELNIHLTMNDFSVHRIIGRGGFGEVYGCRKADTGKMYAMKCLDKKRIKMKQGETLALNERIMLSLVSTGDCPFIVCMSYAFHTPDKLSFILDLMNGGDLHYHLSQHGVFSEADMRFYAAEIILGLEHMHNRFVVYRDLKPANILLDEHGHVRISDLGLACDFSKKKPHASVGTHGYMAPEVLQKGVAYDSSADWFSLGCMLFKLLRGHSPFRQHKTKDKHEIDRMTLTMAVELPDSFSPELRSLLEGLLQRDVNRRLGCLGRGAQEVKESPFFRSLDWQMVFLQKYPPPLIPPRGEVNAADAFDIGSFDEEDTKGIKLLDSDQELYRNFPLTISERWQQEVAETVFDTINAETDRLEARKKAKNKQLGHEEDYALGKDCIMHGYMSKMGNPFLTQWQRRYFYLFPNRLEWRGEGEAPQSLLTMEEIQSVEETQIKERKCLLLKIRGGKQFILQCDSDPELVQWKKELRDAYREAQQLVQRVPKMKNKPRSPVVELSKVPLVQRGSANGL
# Sequence of kinase named in conditions (Homo sapiens, UniProt P07949) (P07949 29-1114): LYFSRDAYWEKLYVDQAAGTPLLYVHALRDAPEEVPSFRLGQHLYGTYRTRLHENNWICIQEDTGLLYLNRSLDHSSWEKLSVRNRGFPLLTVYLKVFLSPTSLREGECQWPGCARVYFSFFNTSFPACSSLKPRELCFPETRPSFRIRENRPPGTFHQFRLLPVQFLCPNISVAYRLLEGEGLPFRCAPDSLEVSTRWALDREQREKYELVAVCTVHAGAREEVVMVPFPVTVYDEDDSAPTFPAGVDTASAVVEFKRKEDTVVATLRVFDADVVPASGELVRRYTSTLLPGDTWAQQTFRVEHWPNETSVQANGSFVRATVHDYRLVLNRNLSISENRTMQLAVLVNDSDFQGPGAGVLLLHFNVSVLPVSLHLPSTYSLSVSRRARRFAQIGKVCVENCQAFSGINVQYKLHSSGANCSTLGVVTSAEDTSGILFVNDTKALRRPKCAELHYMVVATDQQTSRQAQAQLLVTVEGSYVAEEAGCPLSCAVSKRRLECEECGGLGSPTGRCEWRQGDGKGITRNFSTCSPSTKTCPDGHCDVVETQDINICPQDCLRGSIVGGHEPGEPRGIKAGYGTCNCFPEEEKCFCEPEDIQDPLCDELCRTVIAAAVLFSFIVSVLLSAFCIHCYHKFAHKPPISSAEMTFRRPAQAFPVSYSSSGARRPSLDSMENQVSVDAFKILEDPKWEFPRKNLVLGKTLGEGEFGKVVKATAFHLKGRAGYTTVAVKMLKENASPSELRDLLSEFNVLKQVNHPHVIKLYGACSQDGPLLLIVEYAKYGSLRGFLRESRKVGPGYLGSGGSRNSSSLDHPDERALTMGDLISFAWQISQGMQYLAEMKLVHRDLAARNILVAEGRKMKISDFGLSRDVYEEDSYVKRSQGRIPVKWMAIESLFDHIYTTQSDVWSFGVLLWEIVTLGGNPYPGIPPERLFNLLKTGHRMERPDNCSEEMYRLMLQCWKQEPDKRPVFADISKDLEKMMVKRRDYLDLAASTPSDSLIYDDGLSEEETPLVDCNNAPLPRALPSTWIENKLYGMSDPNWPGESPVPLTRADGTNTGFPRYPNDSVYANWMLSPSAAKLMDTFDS
# Sequence of kinase named in conditions (Homo sapiens, UniProt Q15303) (Q15303 26-1308): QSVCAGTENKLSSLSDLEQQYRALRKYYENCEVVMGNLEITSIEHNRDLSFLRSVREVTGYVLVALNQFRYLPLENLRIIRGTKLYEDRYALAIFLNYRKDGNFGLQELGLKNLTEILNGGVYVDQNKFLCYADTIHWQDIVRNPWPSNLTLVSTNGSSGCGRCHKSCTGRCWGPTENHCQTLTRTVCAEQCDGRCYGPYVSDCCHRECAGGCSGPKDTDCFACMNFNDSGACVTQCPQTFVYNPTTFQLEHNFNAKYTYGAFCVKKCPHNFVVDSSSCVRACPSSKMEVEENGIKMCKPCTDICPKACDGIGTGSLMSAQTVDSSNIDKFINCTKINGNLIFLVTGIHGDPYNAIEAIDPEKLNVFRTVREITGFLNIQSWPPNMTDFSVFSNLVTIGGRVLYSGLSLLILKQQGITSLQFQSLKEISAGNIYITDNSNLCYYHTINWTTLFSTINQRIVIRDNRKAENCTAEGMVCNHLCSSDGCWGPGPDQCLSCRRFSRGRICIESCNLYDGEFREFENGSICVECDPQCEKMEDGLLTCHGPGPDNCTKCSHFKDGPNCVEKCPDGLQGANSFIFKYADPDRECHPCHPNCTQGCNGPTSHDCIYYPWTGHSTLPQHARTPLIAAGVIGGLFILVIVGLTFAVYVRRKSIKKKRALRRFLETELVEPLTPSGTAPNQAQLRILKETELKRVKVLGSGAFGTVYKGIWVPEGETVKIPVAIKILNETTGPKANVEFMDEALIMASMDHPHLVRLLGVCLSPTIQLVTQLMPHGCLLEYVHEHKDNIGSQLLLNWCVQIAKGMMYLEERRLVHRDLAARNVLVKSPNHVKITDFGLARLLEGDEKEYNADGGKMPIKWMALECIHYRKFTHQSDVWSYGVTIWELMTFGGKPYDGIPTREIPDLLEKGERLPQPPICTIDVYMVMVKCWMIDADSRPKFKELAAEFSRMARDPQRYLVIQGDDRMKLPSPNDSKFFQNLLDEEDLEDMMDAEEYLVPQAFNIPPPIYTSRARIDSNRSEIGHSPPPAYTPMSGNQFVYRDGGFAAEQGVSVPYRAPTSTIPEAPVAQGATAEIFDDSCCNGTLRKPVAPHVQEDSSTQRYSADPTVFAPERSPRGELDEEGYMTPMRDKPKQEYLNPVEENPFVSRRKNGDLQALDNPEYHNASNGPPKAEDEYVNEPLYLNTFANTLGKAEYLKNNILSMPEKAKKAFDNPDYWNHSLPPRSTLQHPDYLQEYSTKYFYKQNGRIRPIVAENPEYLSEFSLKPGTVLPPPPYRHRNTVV
# Sequence of kinase named in conditions (Homo sapiens, UniProt Q8N4C8) (Q8N4C8 whole entry): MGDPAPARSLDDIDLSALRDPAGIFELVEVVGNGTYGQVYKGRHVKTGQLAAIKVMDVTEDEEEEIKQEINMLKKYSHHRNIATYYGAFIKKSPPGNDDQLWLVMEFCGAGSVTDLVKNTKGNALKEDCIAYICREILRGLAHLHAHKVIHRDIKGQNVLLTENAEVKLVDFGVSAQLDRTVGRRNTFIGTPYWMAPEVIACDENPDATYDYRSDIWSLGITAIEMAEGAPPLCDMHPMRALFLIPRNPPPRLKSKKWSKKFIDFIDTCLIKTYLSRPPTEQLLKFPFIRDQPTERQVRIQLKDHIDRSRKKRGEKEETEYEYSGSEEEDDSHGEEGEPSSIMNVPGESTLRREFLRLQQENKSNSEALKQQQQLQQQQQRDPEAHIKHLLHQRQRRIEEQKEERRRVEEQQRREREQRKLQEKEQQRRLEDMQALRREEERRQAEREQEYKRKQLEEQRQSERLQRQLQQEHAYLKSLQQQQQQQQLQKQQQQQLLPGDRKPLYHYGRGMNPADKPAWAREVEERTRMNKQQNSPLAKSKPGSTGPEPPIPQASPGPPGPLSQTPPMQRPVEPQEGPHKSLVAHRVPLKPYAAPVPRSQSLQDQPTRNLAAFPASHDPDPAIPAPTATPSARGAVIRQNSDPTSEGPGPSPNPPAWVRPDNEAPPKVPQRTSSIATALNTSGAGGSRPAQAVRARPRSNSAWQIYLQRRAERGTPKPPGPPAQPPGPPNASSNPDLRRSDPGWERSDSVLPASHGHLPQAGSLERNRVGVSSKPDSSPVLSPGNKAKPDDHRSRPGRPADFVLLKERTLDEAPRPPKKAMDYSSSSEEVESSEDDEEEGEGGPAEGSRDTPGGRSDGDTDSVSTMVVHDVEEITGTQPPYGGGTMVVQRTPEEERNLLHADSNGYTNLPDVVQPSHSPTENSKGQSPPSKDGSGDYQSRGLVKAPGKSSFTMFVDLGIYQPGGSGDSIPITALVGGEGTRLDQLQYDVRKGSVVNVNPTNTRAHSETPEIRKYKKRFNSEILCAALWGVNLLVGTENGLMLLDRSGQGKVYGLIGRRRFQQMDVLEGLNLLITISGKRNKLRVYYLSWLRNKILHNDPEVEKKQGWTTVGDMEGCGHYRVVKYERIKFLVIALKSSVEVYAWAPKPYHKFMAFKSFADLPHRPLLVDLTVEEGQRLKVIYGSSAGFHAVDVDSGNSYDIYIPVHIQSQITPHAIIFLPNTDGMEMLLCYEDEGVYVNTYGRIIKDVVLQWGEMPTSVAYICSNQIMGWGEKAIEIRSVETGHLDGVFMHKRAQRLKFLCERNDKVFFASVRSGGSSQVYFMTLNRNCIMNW
smiles,measurement,setting,value
"FC(F)(F)c1c(Cl)ccc(-n2ccnn2)c1Cl [8l, 1-(2,4-Dichloro-3-(trifluoromethyl)phenyl)-1H-1,2,3-triazole]",inhibition at 10 µM,[1],2%
same,inhibition at 10 µM,[2],7%
same,inhibition at 10 µM,[3],6%
same,inhibition at 10 µM,[4],1%
same,inhibition at 10 µM,"[5]; PDK1, 10 μM",4%
same,inhibition at 10 µM,"[5]; PDK1 Direct, 10 μM",-2%
same,inhibition at 10 µM,[6],7%
same,inhibition at 10 µM,[7],-5%
same,inhibition at 10 µM,[8],15%
same,inhibition at 10 µM,[9],7%
same,inhibition at 10 µM,[10],3%
same,inhibition at 10 µM,[11],-4%
same,inhibition at 10 µM,[12],9%
same,inhibition at 10 µM,[13],7%
same,inhibition at 10 µM,[14],11%
same,inhibition at 10 µM,[15],14%
same,inhibition at 10 µM,[16],4%
same,inhibition at 10 µM,[17],4%
same,inhibition at 10 µM,[18],3%
same,inhibition at 10 µM,[19],5%
same,inhibition at 10 µM,[20],4%
same,inhibition at 10 µM,[21],10%
same,inhibition at 10 µM,[22],1%
same,inhibition at 10 µM,[23],-2%
same,inhibition at 10 µM,[24],1%
same,inhibition at 10 µM,[25],5%
same,inhibition at 10 µM,[26],12%
same,inhibition at 10 µM,[27],2%
same,inhibition at 10 µM,[28],1%
same,inhibition at 10 µM,[29],11%
same,inhibition at 10 µM,[30],0%
same,inhibition at 10 µM,[31],-3%
same,inhibition at 10 µM,[32],-2%
same,inhibition at 10 µM,[33],0%
same,inhibition at 10 µM,[34],14%
